Results: patent US12612374B2, “Thiazole and diphenyl substituted sulfoxides for use in improving cognition functions and against addictions to substances” (Cogmotiv FlexCo, priority 2019, dated 2026)

Each compound was assayed against T1, human NET (Homo sapiens, UniProt P23975) (assay: Monoamine transporter reuptake inhibition, [3H]-MPP+ uptake (NET)). Conditions: HEK 293 stably expressing human NET; 0.02 μM [3H]-MPP+, 3 min; means of at least three independent experiments; NS = Not specific in the used concentration range; read-out: NET IC50 ± SD.
T1 construct: expressed in transfected cells
Assay type: cell-based

T1 sequence (P23975 whole entry): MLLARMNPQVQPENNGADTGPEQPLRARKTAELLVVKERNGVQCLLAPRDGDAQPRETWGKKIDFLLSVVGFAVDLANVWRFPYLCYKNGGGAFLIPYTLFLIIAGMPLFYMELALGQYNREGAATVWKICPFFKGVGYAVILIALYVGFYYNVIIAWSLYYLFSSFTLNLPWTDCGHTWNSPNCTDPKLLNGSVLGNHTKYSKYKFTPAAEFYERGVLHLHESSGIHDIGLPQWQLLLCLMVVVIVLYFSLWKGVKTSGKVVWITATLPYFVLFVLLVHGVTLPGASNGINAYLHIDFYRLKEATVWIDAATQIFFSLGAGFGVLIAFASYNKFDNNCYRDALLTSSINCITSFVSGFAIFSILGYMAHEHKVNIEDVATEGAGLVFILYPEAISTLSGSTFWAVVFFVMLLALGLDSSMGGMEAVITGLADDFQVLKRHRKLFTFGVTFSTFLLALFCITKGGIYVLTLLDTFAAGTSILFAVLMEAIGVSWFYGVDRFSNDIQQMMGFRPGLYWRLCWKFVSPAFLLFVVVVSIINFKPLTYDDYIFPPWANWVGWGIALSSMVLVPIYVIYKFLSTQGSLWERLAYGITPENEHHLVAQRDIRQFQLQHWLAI

Structure (SMILES) | IC50 [µM]
[O-][S@+](Cc1cncs1)[C@@H](c1ccccc1)c1cccc(Br)c1 [Compound 1_2] | 148 ± 68.4
[O-][S+](Cc1cncs1)C(c1ccccc1)c1cccc(Br)c1 (mixture of isomers) [(R), 5-((((3-bromophenyl)(phenyl)methyl)sulfinyl)methyl)thiazole] | 17.2 ± 4.5
[O-][S@@+](Cc1cncs1)[C@@H](c1ccccc1)c1cccc(Br)c1 (single isomer, unassigned) [Compound 1_1] | 11.7 ± 7.3
[O-][S@+](Cc1cncs1)[C@H](c1ccccc1)c1cccc(Br)c1 [Compound 2_2] | 13.9 ± 15.9
